Data from BindingDB's records for doi:10.1016/s0960-894x(98)00709-4 (Dupont Pharmaceuticals, 1999).

Experiments:
[1] = Inhibition of platelet aggregation in heparin treated human platelet rich plasma (PRP)
[2] = Inhibition of platelet aggregation in citreated human platelet rich plasma (PRP)

IC50 [1]	IC50 [2]	Compound
560 nM	–	N=C(N)c1ccc(C2=NOC(CC(=O)NCCC(=O)O)C2)cc1 (centres undefined)
66 nM	–	[H]/N=C(/N)c1ccc(C2=NO[C@@H](CC(=O)NC[C@H](NC(=O)OCCCC)C(=O)O)C2)cc1
224 nM	122 nM	C=CCOP(=O)(NC(CNC(=O)CC1CC(c2ccc(C(=N)N)cc2)=NO1)C(=O)O)OCC=C (centres undefined) [2-(Bis-allyloxy-phosphorylamino)-3-{2-[3-(4-carbamimidoyl-phenyl)-4,5-dihydro-isoxazol-5-yl]-acetylamino}-propionic acid]
240 nM	117 nM	CCOP(=O)(NC(CNC(=O)CC1CC(c2ccc(C(=N)N)cc2)=NO1)C(=O)O)OCC (centres undefined) [3-{2-[3-(4-Carbamimidoyl-phenyl)-4,5-dihydro-isoxazol-5-yl]-acetylamino}-2-(diethoxy-phosphorylamino)-propionic acid]
210 nM	103 nM	CC(C)OP(=O)(NC(CNC(=O)CC1CC(c2ccc(C(=N)N)cc2)=NO1)C(=O)O)OC(C)C (centres undefined) [3-{2-[3-(4-Carbamimidoyl-phenyl)-4,5-dihydro-isoxazol-5-yl]-acetylamino}-2-(diisopropoxy-phosphorylamino)-propionic acid]
376 nM	260 nM	N=C(N)c1ccc(C2=NOC(CC(=O)NCC(NP(=O)(O)O)C(=O)O)C2)cc1 (centres undefined) [3-{2-[3-(4-Carbamimidoyl-phenyl)-4,5-dihydro-isoxazol-5-yl]-acetylamino}-2-phosphonoamino-propionic acid]

Compound	IC50 [1]	IC50 [2]
CCCCOP(=O)(NC(CNC(=O)CC1CC(c2ccc(C(=N)N)cc2)=NO1)C(=O)O)OCCCC (centres undefined) [3-{2-[3-(4-Carbamimidoyl-phenyl)-4,5-dihydro-isoxazol-5-yl]-acetylamino}-2-(dibutoxy-phosphorylamino)-propionic acid]	221 nM	114 nM
COP(=O)(NC(CNC(=O)CC1CC(c2ccc(C(=N)N)cc2)=NO1)C(=O)O)OC (centres undefined) [3-{2-[3-(4-Carbamimidoyl-phenyl)-4,5-dihydro-isoxazol-5-yl]-acetylamino}-2-(dimethoxy-phosphorylamino)-propionic acid]	197 nM	105 nM
